Tests used:
Assay in all cases: Mass spectroscopy proteomics, semi-quantitative binding affinity of serum proteins (plaqueproteome, Table 2)
Conditions in all cases: higher number = stronger affinity
[1] = target: T1, Abeta-42 plaque particles (Homo sapiens, UniProt P05067)
T1 construct: Abeta 1-42
How it was run: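 AD patient serum or plasma (50% in PBS) was incubated with Abeta-42 aggregates (30 μg) for 1 h at 37 °C, then stained with Thioflavin S for 30 min. Labeled particles were FACS-sorted, trypsin/Lys-C digested overnight and analyzed by MS/MS. Sequest searched human UniProt; Scaffold/Protein Prophet validated the identifications.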

[2] = system: High Density cholesterol (Chl Large) plaque particles; set-up: species or system human
How it was run: (§1)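 Read-out is MS/MS protein identification (Sequest, strict trypsin, 20 ppm parent tolerance; Scaffold probabilities) of serum proteins bound to flow-sorted cholesterol plaque particles. These particles formed when 50% atherosclerotic serum was incubated with 30 μg cholesterol aggregates for 1 hr at 37° C.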

[3] = system: Low density cholesterol (Chl small) plaque particles; set-up: species or system human
How it was run: as §1

[4] = target: T2, alpha-synuclein plaque particles (Homo sapiens, UniProt P37840)
T2 construct: 140 amino acids polypeptide
How it was run: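 AD-subject plasma or serum (800 μL of 50%) mixed with 30 μg preformed alpha-synuclein aggregates for 1 h at 37 °C; Thioflavin S-positive particles isolated by flow sorting. After reduction, acrylamide alkylation and overnight tryptic digestion, serum proteins identified by MS/MS with Sequest and Scaffold.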

Tau plaque particles = system: Tau plaque particles; set-up: species or system human
How it was run: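 Serum or plasma proteins captured on Thioflavin S-labelled Tau plaque particles (Tau-74, Tau-275 oligomers preformed in PBS at 37° C for 2 h; 1 h co-incubation at 37° C) were isolated by FACS sorting, then tryptically digested and identified by MS/MS (Sequest, human UniProt, strict trypsin).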

| Substance | Semi-quantitative analysis of proteins binding to different plaque particles: Abeta-42 [1] | Semi-quantitative analysis of proteins binding to different plaque particles: Chl Large [2] | Semi-quantitative analysis of proteins binding to different plaque particles: Chl small [3] | Semi-quantitative analysis of proteins binding to different plaque particles: Synuclein [4] | Semi-quantitative analysis of proteins binding to different plaque particles: Tau (Tau plaque particles) |
| --- | --- | --- | --- | --- | --- |
| Complement component C6 | 0 | 1 | 1 | 3 | 1 |
| Complement component C7 | 0 | 4 | 6 | 1 | 4 |
| Complement component C8 alpha chain | 0 | 3 | 2 | 0 | 0 |
| Complement component C8 beta chain | 0 | 1 | 2 | 0 | 2 |
| Complement component C8 gamma chain | 0 | 0 | 1 | 2 | 2 |
| Complement component C9 | 0 | 1 | 1 | 1 | 0 |
| Complement factor B | 12 | 9 | 14 | 10 | 13 |
| Filaggrin | 2 | 0 | 0 | 0 | 0 |
| Filaggrin-2 | 4 | 0 | 0 | 0 | 0 |
| Gelsolin | 2 | 8 | 9 | 6 | 9 |
| Glyceraldehyde-3-phosphate dehydrogenase | 5 | 0 | 0 | 0 | 0 |
| Haptoglobin | 23 | 27 | 29 | 22 | 24 |
| Hemoglobin subunit alpha | 2 | 4 | 5 | 5 | 5 |
| Hemoglobin subunit delta | 0 | 0 | 0 | 2 | 0 |
| Hemopexin | 11 | 22 | 16 | 18 | 16 |
| Histone H1.2 | 2 | 0 | 0 | 0 | 0 |
| Hornerin | 2 | 0 | 0 | 0 | 1 |
| Ig alpha-1 chain C region | 9 | 10 | 8 | 11 | 12 |
| Ig gamma-1 chain C region | 12 | 41 | 51 | 44 | 27 |
| Ig gamma-4 chain C region | 7 | 7 | 11 | 8 | 11 |
| Ig heavy chain V-III region BRO | 7 | 5 | 6 | 4 | 5 |
| Ig heavy chain V-III region BUT | 2 | 1 | 1 | 1 | 1 |

From patent publication US9618524B2, “Method, composition, isolation and identification of a plaque particle and related biomarker” (Plaxgen Inc., priority 2012, dated 2017)
